Test results: ChEMBL document CHEMBL1147625, “HIV-1 integrase pharmacophore model derived from diverse classes of inhibitors” (Bioorg Med Chem Lett, 2004)

target: Human immunodeficiency virus type 1 integrase (Human immunodeficiency virus 1, UniProt Q7ZJM1)
Sequence (Q7ZJM1 whole entry): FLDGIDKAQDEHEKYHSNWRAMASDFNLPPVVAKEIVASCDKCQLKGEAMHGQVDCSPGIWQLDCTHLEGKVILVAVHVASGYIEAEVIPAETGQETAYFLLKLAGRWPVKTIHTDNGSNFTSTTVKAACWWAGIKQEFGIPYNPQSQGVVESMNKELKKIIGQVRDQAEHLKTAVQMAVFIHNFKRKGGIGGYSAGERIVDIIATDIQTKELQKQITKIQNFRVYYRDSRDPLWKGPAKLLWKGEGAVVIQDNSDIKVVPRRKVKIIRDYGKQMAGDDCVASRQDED
Description: Inhibitory activity against HIV-1 integrase

Compound | IC50 [µM]
CC1C=C(NC(=O)C2=CC(NC(=O)C3=CC(N(C)C(=O)c4ccc(C(=O)N(C)C5=CC(C)C(C(=O)NC6=CC(C)C(C(=O)NC7=CC(C)C(C(=O)NCCCN(C)C)=C7)=C6)=C5)cc4)=CC3C)=CC2C)C=C1C(=O)NCCCN(C)C (stereo not drawn) | 0.07
CCCCCc1cc(O)cc2c1Oc1c(C=O)c(O)c(Cl)c(C(=O)CCCC)c1C(=O)O2 | 33.6
CN(C)Cc1ccc2n1Cc1ccccc1SC2c1ccc(F)cc1 (stereo not drawn) | 1000
O=C1c2ccccc2SCC2CSC(c3ccccc3)N12 (stereo not drawn) | 322
COC(=O)c1ccc(CC(=O)c2c(C)cc(O)c(C=O)c2O)c(C)c1O | 123
[N-]=[N+]=NCc1ccc(/C(O)=C\C(=O)C(=O)O)cc1CN=[N+]=[N-] | 0.26
O=C(NNCC(O)COc1ccccc1)c1ccccc1O (stereo not drawn) | > 200
CC1=NN(C(=O)c2ccccc2O)C(=O)/C1=C\c1cccc(O)c1 | 7.4
O=C(/C=C/c1ccc(O)c(O)c1)NCC(OC(=O)/C=C/c1ccc(O)c(O)c1)C(=O)O (stereo not drawn) | 0.37
[N-]=[N+]=NC1CCC(N=[N+]=[N-])c2cc(/C(O)=C\C(=O)C(=O)O)ccc21 (stereo not drawn) | 0.32
[N-]=[N+]=NC1CC(N=[N+]=[N-])c2cc(/C(O)=C\C(=O)C(=O)O)ccc21 (stereo not drawn) | 0.36
CC(Cc1ccc(O)c(O)c1)(C(=O)O)C(C)(Cc1ccc(O)c(O)c1)C(=O)O (stereo in doubt; form 2) | 0.23
CC(Cc1ccc(O)c(O)c1)(C(=O)O)C(C)(Cc1ccc(O)c(O)c1)C(=O)O (stereo in doubt; form 1) | 0.44
O=C(O)C(=O)/C=C(\O)c1cc(OCc2ccccc2)cc(OCc2ccccc2)c1 | 0.059
N#CCCc1cccc(/C(O)=C\C(=O)C(=O)O)c1 | 1.5

Second part, the molecule after the results:

IC50 [µM] | Compound
20 | COc1cc(C(C2=C(O)C(=O)c3ccccc3C2=O)C2C(=O)c3ccccc3C(=O)C2O)cc(Br)c1O (stereo not drawn)
0.1 | CC1C=C(NC(=O)C2=CC(NC(=O)C3=CC(NC(=O)c4ccc(C(=O)NC5=CC(C)C(C(=O)NC6=CC(C)C(C(=O)NC7=CC(C)C(C(=O)NCCC(=N)N)=C7)=C6)=C5)nc4)=CC3C)=CC2C)C=C1C(=O)NCCC(=N)N (stereo not drawn)
2.1 | COc1cc(C)c2c(c1C)OC(=O)c1c(C)c(Cl)c(O)c(C=O)c1O2
0.09 | CC1C=C(NC(=O)C2=CC(NC(=O)C3=CC(NC(=O)c4ccc(C(=O)NC5=CC(C)C(C(=O)NC6=CC(C)C(C(=O)NC7=CC(C)C(C(=O)NCCC(=N)N)=C7)=C6)=C5)cc4)=CC3C)=CC2C)C=C1C(=O)NCCC(=N)N (stereo not drawn)
> 100 | O=C1C(O)=C(C(C2=C(O)C(=O)c3ccccc3C2=O)c2ccc(Cl)cc2)C(=O)c2ccccc21
> 293 | CC1=NN(C(=O)c2ccc(Cl)cc2)C(=O)/C1=C\c1ccc(O)cc1
0.97 | CC(CCC(=O)O)C1CC[C@H]2[C@@H]3C(OC(=O)/C=C/c4ccc(O)c(O)c4)CC4CC(OC(=O)/C=C/c5ccc(O)c(O)c5)CC[C@]4(C)[C@H]3CC(OC(=O)/C=C/c3ccc(O)c(O)c3)[C@]12C (stereo partly drawn)
0.6 | COc1ccc(/C=C2\C(=O)N(C(=O)c3ccccc3O)N=C2C)cc1
